Measurements published in patent publication US20170280720A1, “ARGININE […] INHIBITORS AND USES THEREOF” (EPIZYME, INC., priority 2014, published 2017).

The compounds below were run on asymmetric di-methyl PABP1 in RKO cells (assay: In Cell Western (ICW) for asymmetric di-methyl PABP1 and DNA content in RKO cells). Conditions: 48 hours.
Assay type: cell-based
Procedure, shortened: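 RKO cells treated with compound for 48 h at 37 °C, then fixed, methanol-permeabilized and stained for asymmetric di-methyl PABP1 (800 nm) with DRAQ5 DNA stain (700 nm). Signal ratio normalized to DMSO and 20 μM reference-compound controls. IC50 from nine 3-fold dilutions in triplicate.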

| Compound | IC50 [µM] |
| --- | --- |
| Cc1cc(C)c(CNC(=O)c2cc(-c3cccc(CN(C)CCN)c3)nc3c2cnn3C(C)C)c(=O)[nH]1 [Compound 360] | 0.934 |
| CNCCN(C)Cc1cccc(-c2cc(C(=O)NCc3c(C)cc(C)[nH]c3=O)c3cnn(C(C)C)c3c2)c1 [Compound 367] | 6.48 |
| CNCCN(C)Cc1cccc(-c2cc(C(=O)NCc3c(C)cc(C)[nH]c3=O)c3cnn(C(C)C)c3n2)c1 [Compound 368] | 1.01 |
| CNCCN(C)Cc1cccc(-c2cc(C(=O)NCc3c(C)cc(C)[nH]c3=O)c(C)c3[nH]ncc23)c1 [Compound 372] | ≥ 20 |

Same assay, conditions: Homo sapiens, RKO, 48 h

| Compound | IC50 [µM] |
| --- | --- |
| CNCCN(C)Cc1ccc(-c2cc(C(=O)NCc3c(C)cc(C)[nH]c3=O)c(C)c3n[nH]cc23)cc1 [Compound 362] | ≥ 20 |

Same assay, conditions: Homo sapiens, RKO, In Cell Western

| Compound | IC50 [µM] |
| --- | --- |
| CNCCN(C)Cc1cccc(-c2nc(C(=O)NCc3cn4ccsc4n3)c3cnn(C4CC4)c3n2)c1 [Compound 180] | 0.897 |
| CNCCN(C)Cc1cccc(-c2cc(C(=O)NCc3ccncc3)c3cnn(C(C)C)c3n2)c1 [Compound 182] | 3.55 |
| CC(C)n1ncc2c(C(=O)N(C)CC3CCOCC3)cc(-c3cccc(CN(C)CCN)c3)nc21 [Compound 256] | 9.56 |
| CN(CCN)Cc1cccc(-c2ccc(C(=O)NCC3CCOCC3)c(N(C)CC3CC3)c2)c1 [Compound 263] | 20 |
| CNCCN(C)Cc1cccc(-c2cc(C(=O)N(C)Cc3ccccn3)c3cnn(C(C)C)c3n2)c1 [Compound 300] | 6.38 |
